From US20250236608A1, “EGFR INHIBITORS” (Blueprint Medicines Corporation, priority 2022, published 2025)

Assays:
[1] = target: pEGFR (Tyr1068) in PC-9 cells (Ex19Del) (Homo sapiens (Human), UniProt P00533, DEL746-750); experiment: PC-9 pEGFR AlphaLISA assay; assay type: cell-based; conditions: 4 hours incubation, p-EGFR (Tyr1068) AlphaLISA, read-out: Ext pEGFR_PC-9 Ex19Del IC50
Outline: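 Phospho-EGFR (Tyr1068) was quantified by AlphaLISA SureFire Ultra in lysates of PC-9 cells exposed for 4 h to compound (4-fold, 10-point dilutions).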

EGFR (d746-750) = EGFR (d746-750) (Homo sapiens (Human), UniProt P00533, DEL746-750); experiment: Biochemical EGFR inhibition assay, EGFR (d746-750); conditions: Caliper mobility shift; 1.0 mM ATP or ATP Km; read-out: Enz EGFR_Exon19-del746-750 IC50
EGFR L858R = EGFR L858R (Homo sapiens (Human), UniProt P00533, L858R); experiment: Biochemical EGFR inhibition assay, EGFR L858R; conditions: Caliper mobility shift; 1.0 mM ATP or ATP Km; read-out: Enz EGFR_L858R IC50
EGFR L858R, sequence (P00533 25-1210 L858R): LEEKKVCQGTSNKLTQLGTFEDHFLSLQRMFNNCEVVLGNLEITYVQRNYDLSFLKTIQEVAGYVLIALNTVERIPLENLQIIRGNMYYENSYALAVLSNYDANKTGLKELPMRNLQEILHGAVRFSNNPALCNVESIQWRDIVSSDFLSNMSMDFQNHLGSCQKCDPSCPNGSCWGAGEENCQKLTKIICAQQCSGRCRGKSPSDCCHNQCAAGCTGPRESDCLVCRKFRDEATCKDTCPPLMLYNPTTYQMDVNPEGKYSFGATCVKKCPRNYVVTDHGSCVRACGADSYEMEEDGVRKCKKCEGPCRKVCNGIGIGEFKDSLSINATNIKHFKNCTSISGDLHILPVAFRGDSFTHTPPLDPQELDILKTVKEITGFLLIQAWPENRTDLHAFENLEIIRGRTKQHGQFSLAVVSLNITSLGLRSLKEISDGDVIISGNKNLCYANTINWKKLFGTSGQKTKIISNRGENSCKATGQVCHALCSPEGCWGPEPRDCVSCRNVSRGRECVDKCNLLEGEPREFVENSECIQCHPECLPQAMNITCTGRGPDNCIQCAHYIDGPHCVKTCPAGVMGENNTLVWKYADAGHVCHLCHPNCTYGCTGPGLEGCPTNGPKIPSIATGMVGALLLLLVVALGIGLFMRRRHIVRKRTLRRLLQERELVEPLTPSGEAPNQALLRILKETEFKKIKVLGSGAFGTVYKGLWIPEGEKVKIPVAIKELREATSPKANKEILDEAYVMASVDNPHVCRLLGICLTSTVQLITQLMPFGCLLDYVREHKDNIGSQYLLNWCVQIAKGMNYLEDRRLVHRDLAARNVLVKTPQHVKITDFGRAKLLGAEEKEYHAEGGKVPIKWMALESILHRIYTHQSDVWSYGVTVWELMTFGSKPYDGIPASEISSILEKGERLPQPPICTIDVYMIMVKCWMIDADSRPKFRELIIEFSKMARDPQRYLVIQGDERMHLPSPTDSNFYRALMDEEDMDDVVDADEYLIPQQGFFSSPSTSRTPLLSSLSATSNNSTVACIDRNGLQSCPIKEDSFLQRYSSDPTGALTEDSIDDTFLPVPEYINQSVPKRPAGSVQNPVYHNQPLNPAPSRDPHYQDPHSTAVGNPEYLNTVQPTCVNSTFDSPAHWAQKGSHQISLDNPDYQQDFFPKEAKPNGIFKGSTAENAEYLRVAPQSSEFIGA

pEGFR (Tyr1068) in PC-9 cells (Ex19Del), sequence (P00533 other isoform, or with tags, fused parts or gaps del 746-750): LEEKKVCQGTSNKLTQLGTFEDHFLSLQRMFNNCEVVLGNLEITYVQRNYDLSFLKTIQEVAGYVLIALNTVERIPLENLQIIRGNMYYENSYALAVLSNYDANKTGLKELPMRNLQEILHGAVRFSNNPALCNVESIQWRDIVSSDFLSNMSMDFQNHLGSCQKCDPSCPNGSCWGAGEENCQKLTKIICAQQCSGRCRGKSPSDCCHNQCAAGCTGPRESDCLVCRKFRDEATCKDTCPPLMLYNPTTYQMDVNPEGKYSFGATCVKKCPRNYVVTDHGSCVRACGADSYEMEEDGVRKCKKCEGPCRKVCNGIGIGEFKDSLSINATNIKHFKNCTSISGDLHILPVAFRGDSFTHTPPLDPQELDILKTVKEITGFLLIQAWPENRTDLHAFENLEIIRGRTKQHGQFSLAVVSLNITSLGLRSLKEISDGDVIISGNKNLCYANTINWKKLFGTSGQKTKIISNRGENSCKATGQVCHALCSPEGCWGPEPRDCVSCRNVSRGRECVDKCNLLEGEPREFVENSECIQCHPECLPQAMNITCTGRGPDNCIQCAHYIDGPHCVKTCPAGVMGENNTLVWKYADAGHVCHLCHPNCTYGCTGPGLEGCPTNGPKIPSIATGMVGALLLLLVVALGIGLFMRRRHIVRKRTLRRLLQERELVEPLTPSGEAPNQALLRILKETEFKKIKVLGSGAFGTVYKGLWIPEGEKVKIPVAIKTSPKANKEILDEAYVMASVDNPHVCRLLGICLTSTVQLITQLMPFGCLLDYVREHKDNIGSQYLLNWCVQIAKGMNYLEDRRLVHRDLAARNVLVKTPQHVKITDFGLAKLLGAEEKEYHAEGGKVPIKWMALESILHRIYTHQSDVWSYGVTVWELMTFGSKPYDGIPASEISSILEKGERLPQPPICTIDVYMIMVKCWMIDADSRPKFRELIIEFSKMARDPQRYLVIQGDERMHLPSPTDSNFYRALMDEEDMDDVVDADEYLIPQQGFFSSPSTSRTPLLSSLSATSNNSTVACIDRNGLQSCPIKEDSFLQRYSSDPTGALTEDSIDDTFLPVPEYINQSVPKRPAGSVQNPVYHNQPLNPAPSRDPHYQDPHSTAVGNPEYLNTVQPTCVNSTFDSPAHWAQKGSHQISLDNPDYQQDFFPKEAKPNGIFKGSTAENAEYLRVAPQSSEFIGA
EGFR (d746-750), sequence (P00533 other isoform, or with tags, fused parts or gaps del 1-694/del 746-750 limits assumed): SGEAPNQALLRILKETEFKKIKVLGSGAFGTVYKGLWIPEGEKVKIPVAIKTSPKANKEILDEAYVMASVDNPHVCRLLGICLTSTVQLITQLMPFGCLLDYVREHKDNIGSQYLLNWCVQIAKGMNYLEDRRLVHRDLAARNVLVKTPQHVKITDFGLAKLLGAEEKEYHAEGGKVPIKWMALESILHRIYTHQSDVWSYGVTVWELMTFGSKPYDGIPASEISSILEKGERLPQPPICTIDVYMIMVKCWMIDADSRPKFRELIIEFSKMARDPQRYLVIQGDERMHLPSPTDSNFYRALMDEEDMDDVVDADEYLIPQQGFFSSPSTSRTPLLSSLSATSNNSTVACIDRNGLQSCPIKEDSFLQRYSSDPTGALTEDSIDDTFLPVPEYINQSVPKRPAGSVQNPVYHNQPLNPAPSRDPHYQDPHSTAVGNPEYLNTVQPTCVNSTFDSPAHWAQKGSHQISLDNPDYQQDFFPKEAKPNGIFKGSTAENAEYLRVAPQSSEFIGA

| SMILES | IC50 [1] | IC50 (EGFR (d746-750)) | IC50 (EGFR L858R) |
| --- | --- | --- | --- |
| COc1cc2ncnc(-c3cn(C)nc3-c3ccccc3)c2cc1OC(=O)N1[C@H](C)CNC[C@@H]1C [Example 87, 7-methoxy-4-(1-methyl-3-phenyl-1H-pyrazol-4-yl)quinazolin-6-yl (2R,6S)-2,6-dimethylpiperazine-1-carboxylate] | 5.7 nM | 2.1 nM | 4.9 nM |
| COc1cc2ncnc(-c3cn(C)nc3-c3ccccc3F)c2cc1NC(=O)[C@]12C[C@H]1CN(C)C2 (single isomer, unassigned) [Example 255, (1R,5R)—N-(4-(3-(2-fluorophenyl)-1-methyl-1H-pyrazol-4-yl)-7-methoxyquinazolin-6-yl)-3-methyl-3-azabicyclo[3.1.0]hexane-1-carboxamide or (1S,5S)—N-(4-(3-(2-fluorophenyl)-1-methyl-1H-pyrazol-4-yl)-7-methoxyquinazolin-6-yl)-3-methyl-3-azabicyclo[3.1.0]hexane-1-carboxamide] | 3.8 nM | 1.8 nM | 2.7 nM |
| [2H]C([2H])([2H])N1CCN(C(=O)Nc2cc3c(-c4cn(C)nc4-c4ccccc4)ncnc3cc2OC)[C@@H](C)C1 [Example 181, (S)—N-(7-methoxy-4-(1-methyl-3-phenyl-1H-pyrazol-4-yl)quinazolin-6-yl)-2-methyl-4-(methyl-d3) piperazine-1-carboxamide] | 4.5 nM | 2.7 nM | 4.3 nM |
| CCOc1cc2ncnc(-c3cn(C)nc3-c3ccccc3)c2nc1NC1CCOCC1 [Example 158, 7-ethoxy-4-(1-methyl-3-phenyl-1H-pyrazol-4-yl)-N-(tetrahydro-2H-pyran-4-yl)pyrido[3,2-d]pyrimidin-6-amine] | 0.2 nM | 1.4 nM | 1.7 nM |
| COc1cc2ncnc(-c3cn(C)nc3-c3ccccc3)c2cc1N1CCOCC1 [Example 160, 4-(7-methoxy-4-(1-methyl-3-phenyl-1H-pyrazol-4-yl)quinazolin-6-yl)morpholine] | 8.3 nM | 2.9 nM | 20 nM |
| CCn1cc(-c2ncnc3cc(OC)c(NC(=O)[C@]45COC[C@H]4C5)cc23)c(-c2ccccc2)n1 [Example 289, (1S,5S)—N-(4-(1-ethyl-3-phenyl-1H-pyrazol-4-yl)-7-methoxyquinazolin-6-yl)-3-oxabicyclo[3.1.0]hexane-1-carboxamide] | 1.5 nM | 0.8 nM | 1.5 nM |
| COc1cc2ncnc(-c3cn(C)nc3-c3ccccc3)c2cc1NC(=O)C1(C(F)(F)F)CC1 [Example 349, N-(7-methoxy-4-(1-methyl-3-phenyl-1H-pyrazol-4-yl)quinazolin-6-yl)-1-(trifluoromethyl)cyclopropane-1-carboxamide] | 3.5 nM | 1 nM | 2 nM |
| COc1cc2ncnc(-c3sc(C)nc3-c3ccccc3)c2cc1NC(=O)C1CC1 [Example 266, N-(7-methoxy-4-(2-methyl-4-phenylthiazol-5-yl)quinazolin-6-yl)cyclopropanecarboxamide] | 4.9 nM | 1 nM | 1.5 nM |
| COc1cc2ncnc(-c3cn(CC(F)F)nc3-c3ccccc3)c2nc1NC(=O)c1ccc(C2CC2)nc1 [Example 358, 6-cyclopropyl-N-(4-(1-(2,2-difluoroethyl)-3-phenyl-1H-pyrazol-4-yl)-7-methoxypyrido[3,2-d]pyrimidin-6-yl)nicotinamide] | 1 nM | 1.1 nM | 1.8 nM |
| CCC(=O)Nc1cc2c(-c3cn(C4COC4)nc3-c3ccccc3)ncnc2cc1OC [Example 249, N-(7-methoxy-4-(1-(oxetan-3-yl)-3-phenyl-1H-pyrazol-4-yl)quinazolin-6-yl)propionamide] | 2.1 nM | 1.4 nM | 2.2 nM |
| COc1cc2ncnc(-c3cn(C)nc3-c3ccccc3)c2cc1OC(=O)N1CCO[C@@H]2C[C@@H]21 (racemic) [Example 83, Cis-rac-7-methoxy-4-(1-methyl-3-phenyl-1H-pyrazol-4-yl)quinazolin-6-yl (1R,6S)-2-oxa-5-azabicyclo[4.1.0]heptane-5-carboxylate] | 4.9 nM | 2.2 nM | 3 nM |
| COc1cc2ncnc(-c3cn(C)nc3-c3ccccc3)c2cc1CO [Example 119, (7-methoxy-4-(1-methyl-3-phenyl-1H-pyrazol-4-yl)quinazolin-6-yl)methanol] | 13.6 nM | 2.1 nM | 3.9 nM |
| CCOc1cc2ncnc(-c3cn(CC(F)F)nc3-c3ccccc3)c2cc1OC [Example 19, 4-(1-(2,2-difluoroethyl)-3-phenyl-1H-pyrazol-4-yl)-7-ethoxy-6-methoxyquinazoline] | 1.3 nM | 0.8 nM | 1.6 nM |
| COc1cc2ncnc(-c3cn(C)nc3-c3ccccc3)c2cc1NC(=O)c1cnc(C)c(F)c1 [Example 196, 5-fluoro-N-(7-methoxy-4-(1-methyl-3-phenyl-1H-pyrazol-4-yl)quinazolin-6-yl)-6-methylnicotinamide] | 1.5 nM | 0.9 nM | 1.7 nM |
| COc1cc2ncnc(-c3cn(C)nc3-c3ccccc3)c2cc1NC(=O)c1ccc(C(F)F)nc1 [Example 352, 6-(difluoromethyl)-N-(7-methoxy-4-(1-methyl-3-phenyl-1H-pyrazol-4-yl)quinazolin-6-yl)nicotinamide] | 4.9 nM | 1.7 nM | 3.6 nM |

Other lines, results leading:

| IC50 [1] | IC50 (EGFR (d746-750)) | IC50 (EGFR L858R) | SMILES |
| --- | --- | --- | --- |
| 7.8 nM | 1.5 nM | 3 nM | COc1cc2ncnc(-c3cn(CCO)nc3-c3ccccc3)c2nc1NC(=O)c1cnn(C(F)(F)F)c1 [Example 415, N-(4-(1-(2-hydroxyethyl)-3-phenyl-1H-pyrazol-4-yl)-7-methoxypyrido[3,2-d]pyrimidin-6-yl)-1-(trifluoromethyl)-1H-pyrazole-4-carboxamide] |
| 5.9 nM | 1.7 nM | 30.4 nM | CCOc1cc2ncnc(-c3cn(C)nc3-c3ccccc3)c2nc1NC(=O)C12CC(N(C)C)(C1)C2 [Example 420, 3-(dimethylamino)-N-(7-ethoxy-4-(1-methyl-3-phenyl-1H-pyrazol-4-yl)pyrido[3,2-d]pyrimidin-6-yl)bicyclo[1.1.1]pentane-1-carboxamide] |
| 1.1 nM | 0.3 nM | 1.1 nM | CCOc1cc2ncnc(-c3cn(C)nc3-c3ccc(F)cc3)c2nc1NC(=O)[C@]12COC[C@H]1C2 (single isomer, unassigned) [Example 384, (1S,5S)—N-(7-ethoxy-4-(3-(4-fluorophenyl)-1-methyl-1H-pyrazol-4-yl)pyrido[3,2-d]pyrimidin-6-yl)-3-oxabicyclo[3.1.0]hexane-1-carboxamide or (1R,5R)—N-(7-ethoxy-4-(3-(4-fluorophenyl)-1-methyl-1H-pyrazol-4-yl)pyrido[3,2-d]pyrimidin-6-yl)-3-oxabicyclo[3.1.0]hexane-1-carboxamide] |
| 11 nM | 4.8 nM | 18.1 nM | Cn1cc(-c2ncnc3cc(C#CCN4CCOCC4)c(NC(=O)C45CC(C4)C5)nc23)c(-c2ccccc2)n1 [Example 454, N-(4-(1-methyl-3-phenyl-1H-pyrazol-4-yl)-7-(3-morpholinoprop-1-yn-1-yl)pyrido[3,2-d]pyrimidin-6-yl)bicyclo[1.1.1]pentane-1-carboxamide] |
| 1.8 nM | 0.6 nM | 1.8 nM | COc1cc2ncnc(-c3cn(C)nc3-c3ccccc3)c2nc1NC(=O)[C@@H]1C[C@H]2C[C@H]2N1C [Example 418, (1R,3S,5R)—N-(7-methoxy-4-(1-methyl-3-phenyl-1H-pyrazol-4-yl)pyrido[3,2-d]pyrimidin-6-yl)-2-methyl-2-azabicyclo[3.1.0]hexane-3-carboxamide] |
| 1.3 nM | 0.9 nM | 1.2 nM | CCn1cc(-c2ncnc3cc(OC)c(NC(=O)[C@]45C[C@H]4CN(C)C5)nc23)c(-c2ccc(F)cc2)n1 (single isomer, unassigned) [Example 399, (1R,5R)—N-(4-(1-ethyl-3-(4-fluorophenyl)-1H-pyrazol-4-yl)-7-methoxypyrido[3,2-d]pyrimidin-6-yl)-3-methyl-3-azabicyclo[3.1.0]hexane-1-carboxamide or (1S,5S)—N-(4-(1-ethyl-3-(4-fluorophenyl)-1H-pyrazol-4-yl)-7-methoxypyrido[3,2-d]pyrimidin-6-yl)-3-methyl-3-azabicyclo[3.1.0]hexane-1-carboxamide] |
| 0.7 nM | 0.7 nM | 1.5 nM | COc1cc2ncnc(-c3cn(CC4CC4)nc3-c3ccccc3)c2nc1NC(=O)[C@@]12C[C@@H]1CN(C)C2 (single isomer, unassigned) [Example 408, (1R,5R)—N-(4-(1-(cyclopropylmethyl)-3-phenyl-1H-pyrazol-4-yl)-7-methoxypyrido[3,2-d]pyrimidin-6-yl)-3-methyl-3-azabicyclo[3.1.0]hexane-1-carboxamide or (1S,5S)—N-(4-(1-(cyclopropylmethyl)-3-phenyl-1H-pyrazol-4-yl)-7-methoxypyrido[3,2-d]pyrimidin-6-yl)-3-methyl-3-azabicyclo[3.1.0]hexane-1-carboxamide] |
| 25.9 nM | 2.1 nM | 2.7 nM | Cc1n[nH]c(-c2ccccc2)c1-c1ncnc2cc(-c3cnn(C)c3)ccc12 [Example 479, 7-(1-methyl-1H-pyrazol-4-yl)-4-(3-methyl-5-phenyl-1H-pyrazol-4-yl)quinazoline] |
